The structures appear in SMILES notation.

A short description of data set [1]: Phase Ib DDI study: plasma PK of darolutamide and keto-darolutamide at steady state in combination with ipatasertib. The settings on record: male, human, plasma, oral. Here is the method: This was an open-label, multicenter, Phase Ib study designed to assess the safety, tolerability, and the drug–drug interaction of the combined administration of 400 mg QD oral ipatasertib and 600 mg BID oral darolutamide. […] For this study, no prospective calculations of the statistical power were made; the sample size selected was based on a typical sample size used for DDI studies. […] Figure 1 presents an overview of the study design.
Plasma concentrations of ipatasertib and its metabolite M1 were determined using a previously reported, validated liquid chromatography–tandem mass spectrometry assay (LC-MS/MS). The lower and upper limit of the quantitation for ipatasertib and M1 was 0.500 ng/mL and 400 ng/mL, respectively. Stable labeled internal standards were used for both analytes. Plasma concentrations of darolutamide and keto-darolutamide were determined by a validated bioanalytical assay using supported liquid extraction and LC-MS/MS detection by Labcorp Early Drug Development Laboratories Inc. (Madison, WI, USA). […] The diastereomers of darolutamide, (S, R)-darolutamide, and (S, S)-darolutamide, were quantified as one entity from a single chromatographic peak. The MS/MS transitions monitored for detection were m/z 399.2 to 178.1 for darolutamide, m/z 397.1 to 136.0 for keto-darolutamide, and 478.2 to 221.0 for the internal standard apalutamide. […]

For data set [2] the following is noted: darolutamide with itraconazole; cited from earlier work.
For data set [3] the following is noted: compared with enzalutamide and apalutamide; cited from earlier work.
The test system of data set [4] is CYP3A4. The settings on record: concomitant administration of darolutamide and midazolam; cited from earlier work.
The conditions of data set [5]: cited from earlier work.
Where [6] appears, read: single-agent darolutamide from the literature, geometric mean (%CV).

`CC(O)c1cc(C(=O)N[C@@H](C)Cn2ccc(-c3ccc(C#N)c(Cl)c3)n2)[nH]n1` (stereo partly drawn) [Darolutamide]: in data set [1], the Tmax (in general, the time at which the peak concentration occurs) was found to be 4.23 h. In addition, in data set [2], the “increase in AUC0–∞ when combined with itraconazole” value is on record as 1.7 fold and the “increase in Cmax when combined with itraconazole” value was 1.4 fold. For the same compound, the “penetration of the blood–brain barrier” value in data set [3] is given as “lower penetration of the blood–brain barrier”. The “reduction of midazolam exposures” value in data set [4] is reported as ~ 29%. In addition, the “time to steady state” value in data set [5] (600 mg BID) was 2 to 5 days. In addition, the “increase in bioavailability when administered with food” value in data set [5] is given as 2.0- to 2.5 fold. In data set [5] (in patients), the “effective t1/2” value is recorded as “approximately 20 h”. For the same compound, the “time at which Cmax is reached” value in data set [5] (single 600 mg oral dose) was “approximately 4 h”. Moreover, in data set [5] (setting [6]), the “AUC0–t,ss” value is on record as 52.82 (33.9) h·µg/mL and the “Cmax,ss” value was 4.79 (30.9) µg/mL. In addition, the “AUC0–12 h,ss” value in data set [5] (single-agent darolutamide) is 52.82 µg·h/mL.

The values are drawn from article PMC9607266, “Drug–Drug Interaction Study to Evaluate the Pharmacokinetics, Safety, and Tolerability of Ipatasertib in Combination with Darolutamide in Patients with Advanced Prostate Cancer” (Pharmaceutics, 2022).
